Columns and labels:
HsmiR155 = test: HeLa cells transfected to overexpress HsmiPEP155, relative expression of Pre-miR155; format: cell-based, Homo sapiens; conditions: HeLa cells overexpressing HsmiPEP155
Text: The DNA fragments of interest (HsmiPEP155 and the mutated miPEP) were synthesized or amplified by PCR using specific primers, and then cloned using the enzymes XhoI and NotI into a pUAS plasmid permitting their overexpression by means of the GAL4 transcription factor, the expression of which is controlled by a constitutive strong promoter.
The different constructs were produced either by PCR amplification on genomic DNA of HeLa cells, or by RT-PCR on total RNAs of L428 human cells. The amplified PCR fragments are digested with the HindIII/EcoRI restriction enzymes and then cloned into the vector pcDNA3.1. The DH5a strain of Escherichia coli is electroporated and then cultured on a solid medium (2YT+agar+ampicillin). The plasmid DNA from different clones is then prepared and sequenced for verification. The constructs are then prepared using the QIAfilter Plasmid Midi kit (QIAGEN) and stored at −20° C.
The HeLa cells (established tumour line, ATCC CCL-2.2) are cultured in a 6-well plate in complete medium [(DMEM (1×)+Glutamax+4.5 g/L glucose without pyruvate+1× penicillin/streptomycin+1 mM Na-pyruvate+10% calf serum] and placed in an incubator at 37° C. and 5% CO2.
The cells are transfected when they are at 50% confluence. […]
10-15 μg of total RNAs is then analysed by Northern blot on 15% acrylamide gel [solution of acrylamide/40% bis-acrylamide, ratio 19:1], 7M urea in TBE 1×. […]

Arabidopsis thaliana [1] = test: Growth of Arabidopsis thaliana plants watered with synthetic miPEP; format: in vivo; conditions: A. thaliana; watered with 0.1 μM synthetic peptide, 3 weeks of growth, vs water
Protocol: The photographs show two plants (top views and side views) after 3 weeks of growth: a control plant watered with water (A), and a plant watered with a composition of 0.1 μM of synthetic peptide corresponding to AtmiPEP164a (B).
The photographs show two plants (top views and side views) after 3 weeks of growth: a control plant watered with water (A), and a plant watered with a composition of 0.1 μM of synthetic peptide corresponding to AtmiPEP319a1 (B).

AtmiR319a = test: Overexpression of AtmiPEP319a1 in A. thaliana, qRT-PCR of AtmiR319a; format: in vivo, Arabidopsis thaliana; conditions: overexpression of AtmiPEP319a1 vs control plant
AtmiR165a [2] = test: Expression of AtmiPEP165a (AtmiORF165a) in tobacco expressing AtmiR165a; format: in vivo, Nicotiana benthamiana; conditions: overexpression of AtmiORF165a
Protocol: At present, AtmiPEP165a and AtmiPEP319a2, identified in Arabidopsis thaliana, have already been characterized.
The total RNA was extracted from roots of M. truncatula or from tobacco leaves using the extraction kit RNeasy Plant Mini Kit (Qiagen). The reverse transcription was performed using the reverse transcriptase SuperScript II (Invitrogen) starting from 500 ng of total RNA. Three repetitions (n=3) were carried out, each with two technical repetitions. Each experiment was repeated from two to three times. The amplifications by qPCR were carried out using a LightCycler 480 System thermocycler (Roche Diagnostics) by the method described in Lauressergues et al. (Plant J., 72(3): 512-22, 2012).
For the miPEPs 165a and 319a, the corresponding miORFs were cloned into pBIN19 by the method described in Combier et al. (Genes & Dev, 22: 1549-1559, 2008).
The composite plants having roots transformed with Agrobacterium rhizogenes were obtained by the method described in Boisson-Dernier et al. (Mol Plant-Microbe Interact, 18: 1269-1276, 2005). The transformed roots were verified and selected by observations of DsRED with a binocular fluorescence magnifier. The control roots correspond to roots transformed with A. rhizogenes not containing the pPEX-DsRED vector. Transformation of the tobacco leaves was carried out by the method described in Combier et al. (Genes & Dev, 22: 1549-1559, 2008).

Arabidopsis thaliana [3] = test: Root growth of Arabidopsis thaliana treated with AtmiPEP165a; format: in vivo; conditions: Arabidopsis thaliana treated with AtmiPEP165a vs control plant of the same age
AtmiR165a [4] = test: Relative expression of AtmiR165a and its target genes in A. thaliana roots treated with AtmiPEP165a; format: in vivo, Arabidopsis thaliana; conditions: AtmiPEP165a 0.01, 0.1, 1 or 10 μM vs water
AtmiR165a [5] = test: Northern blot of miR165a in A. thaliana roots treated with synthetic AtmiPEP165a; format: in vivo, Arabidopsis thaliana; conditions: 0.1 μM synthetic miPEP165a in water vs water

## MEMALMVAQTRKGKSVV (listed as Homo sapiens) [HsmiPEP155]
HsmiR155
  expression of HsmiR155 (relative expression of Pre-miR155): increases

## MNIHTYHHLLFPSLVFHQSSDVPNALSLHIHTYEYIIVVIDPFRITLAFR (listed as Arabidopsis thaliana) [AtmiPEP319a1]
Arabidopsis thaliana [1]
  plant growth: increases plant growth significantly
AtmiR319a
  accumulation of AtmiR319a: increase

## MRVKLFQLRGMLSGSRIL (listed as Arabidopsis thaliana) [AtmiPEP165a]
AtmiR165a [2]
  accumulation of AtmiR165a: increase
Arabidopsis thaliana [3]
  root growth phenotype: greatly accelerated root growth
AtmiR165a [4]
  accumulation of AtmiR165a: dose-dependent effect
  regulation of the target genes of miR165a (PHV, PHB and REV): negative regulation
AtmiR165a [5]
  accumulation of miR165a (Northern blot): increase

From patent US12024543B2, “Micropeptides and use of same for modulating gene expression” (UNIVERSITE PAUL SABATIER TOULOUSE III, priority 2013, dated 2024)
